Each compound was assayed against T1, human PAH with the R408W mutation (Homo sapiens, UniProt P00439, R408W) (assay: Cell Based Phenylalanine Flux Assay). Conditions: A375 cells expressing R408W PAH; 24 hrs with compound, then 20 µM sepiapterin and 800 µM 13C9,15N-Phenylalanine for 4 hours; 13C-Tyrosine by LC-MS; average where tested multiple times; read-out: AC50.
T1 construct: expressed in transfected cells
T1 sequence (P00439 1-452 R408W): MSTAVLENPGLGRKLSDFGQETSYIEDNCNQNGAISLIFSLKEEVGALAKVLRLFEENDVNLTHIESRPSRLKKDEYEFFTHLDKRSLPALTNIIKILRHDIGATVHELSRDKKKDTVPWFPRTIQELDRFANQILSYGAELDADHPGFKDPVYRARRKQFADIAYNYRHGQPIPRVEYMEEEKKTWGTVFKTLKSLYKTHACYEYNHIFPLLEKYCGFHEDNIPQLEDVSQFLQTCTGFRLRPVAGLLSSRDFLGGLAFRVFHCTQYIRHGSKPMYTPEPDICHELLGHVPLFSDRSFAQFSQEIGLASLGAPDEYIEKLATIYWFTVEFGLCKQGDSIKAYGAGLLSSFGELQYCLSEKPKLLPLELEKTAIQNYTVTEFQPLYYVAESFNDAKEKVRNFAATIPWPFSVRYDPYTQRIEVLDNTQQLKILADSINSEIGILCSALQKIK
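Further: after compound treatment, cells received sepiapterin plus isotope-labelled Phenylalanine for 4 hours, then labelled Tyrosine in the medium was quantified, 10-point 2-fold dilution series run in duplicate.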

Row | AC50 [nM] | SMILES
1 | 1000 to 5000 | COc1cccn2nc(C3c4nc[nH]c4CCN3C(=O)c3cnn4cc(-c5cnn(C)c5)ccc34)cc12 (stereo not shown)
2 | > 5000 | O=C(c1nnc(-c2ccccn2)o1)N1CCCc2[nH]cnc2C1c1cc2ccccn2n1 (stereo not shown)
3 | > 5000 | CC(C)(C)c1nnc(N2CCc3[nH]cnc3C2c2cc3cccc(C(F)(F)F)n3n2)o1 (stereo not shown)
4 | > 5000 | O=C(c1cnc(-c2ccccn2)o1)N1CCc2[nH]cnc2C1c1cc2ccccn2n1 (stereo not shown)
5 | 1000 to 5000 | Cc1cccc2cc(C3c4nc[nH]c4CCN3c3nnc(C(C)(C)C)o3)nn12 (stereo not shown)

Row | SMILES | AC50 [nM]
6 | COc1cccn2nc([C@H]3c4nc[nH]c4CCN3C(=O)c3cc(C(C)(C)C)nn3C)cc12 (single isomer, unassigned) | > 5000
7 | Cc1c([C@@H]2c3nc[nH]c3CCN2C(=O)c2nnc(-c3cnn(C)c3C)o2)nn2ccccc12 (single isomer, unassigned) | 1000 to 5000
8 | O=C(c1nnc(-c2cn[nH]c2)o1)N1CCc2[nH]cnc2[C@H]1c1cc2c(F)cccn2n1 (single isomer, unassigned) | 1000 to 5000

Same assay, conditions: A375 cells expressing human PAH R408W; 24 hrs compound incubation; 13C-Tyrosine by LC-MS; average where tested multiple times; read-out: AC50

Row | AC50 [nM] | SMILES
9 | 500 to 1000 | CC(C)c1cccn2nc([C@@H]3c4nc[nH]c4CCN3C(=O)c3nnc(-c4ncccn4)o3)cc12 [Example 1981, (S)-(4-(4-isopropylpyrazolo[1,5-a]pyridin-2-yl)-1,4,6,7-tetrahydro-5H-imidazo[4,5-c]pyridin-5-yl)(5-(pyrimidin-2-yl)-1,3,4-oxadiazol-2-yl)methanone]
10 | 500 to 1000 | Nc1cnc(N2CCc3[nH]cnc3[C@H]2c2cc3c(F)cccn3n2)nc1 [Example 1837, (S)-2-(4-(4-fluoropyrazolo[1,5-a]pyridin-2-yl)-1,4,6,7-tetrahydro-5H-imidazo[4,5-c]pyridin-5-yl)pyrimidin-5-amine]
11 | 1000 to 5000 | CC(F)(F)c1nnc(N2CCc3[nH]cnc3[C@H]2c2cc3cccc(C(F)F)n3n2)o1 [Example 2523, (S)-2-(1,1-difluoroethyl)-5-(4-(7-(difluoromethyl)pyrazolo[1,5-a]pyridin-2-yl)-1,4,6,7-tetrahydro-5H-imidazo[4,5-c]pyridin-5-yl)-1,3,4-oxadiazole]
12 | > 5000 | COc1cccn2nc([C@H]3c4nc[nH]c4CCN3c3ncc(C(F)(F)F)cn3)cc12 [Example 2201, (R)-4-(4-methoxypyrazolo[1,5-a]pyridin-2-yl)-5-(5-(trifluoromethyl)pyrimidin-2-yl)-4,5,6,7-tetrahydro-1H-imidazo[4,5-c]pyridine]
13 | 500 to 1000 | Cc1cccn2nc([C@@H]3c4nc[nH]c4CCN3C(=O)c3cnc(C4CC4)o3)cc12 [Example 1918, (S)-(2-cyclopropyloxazol-5-yl)(4-(4-methylpyrazolo[1,5-a]pyridin-2-yl)-1,4,6,7-tetrahydro-5H-imidazo[4,5-c]pyridin-5-yl)methanone]
14 | < 500 | FC(F)c1cccc2cc([C@@H]3c4nc[nH]c4CCN3c3ccc(C(F)(F)F)cn3)nn12 [Example 2138, (S)-4-(7-(difluoromethyl)pyrazolo[1,5-a]pyridin-2-yl)-5-(5-(trifluoromethyl)pyridin-2-yl)-4,5,6,7-tetrahydro-1H-imidazo[4,5-c]pyridine]
15 | 1000 to 5000 | FC(F)c1cccc2cc([C@@H]3c4nc[nH]c4CCN3c3nnc(-c4cnccn4)o3)nn12 [Example 2521, (S)-2-(4-(7-(difluoromethyl)pyrazolo[1,5-a]pyridin-2-yl)-1,4,6,7-tetrahydro-5H-imidazo[4,5-c]pyridin-5-yl)-5-(pyrazin-2-yl)-1,3,4-oxadiazole]

Same assay, conditions: A375 cells expressing human R408W PAH; 24 hrs compound incubation; 13C-Tyrosine by LC-MS; average where tested multiple times; read-out: AC50

Row | AC50 [nM] | SMILES
16 | < 500 | Cc1nc(C(C)(C)F)oc1C(=O)N1CCc2[nH]cnc2[C@H]1c1cc2cccc(F)n2n1 [Example 1278, (S)-(2-(2-fluoropropan-2-yl)-4-methyloxazol-5-yl)(4-(7-fluoropyrazolo[1,5-a]pyridin-2-yl)-6,7-dihydro-1H-imidazo[4,5-c]pyridin-5(4H)-yl)methanone]
17 | 1000 to 5000 | O=C(c1ocnc1C(F)F)N1CCc2[nH]cnc2[C@@H]1c1cc2c(F)cccn2n1 [Example 759, (R)-(4-(difluoromethyl)oxazol-5-yl)(4-(4-fluoropyrazolo[1,5-a]pyridin-2-yl)-6,7-dihydro-1H-imidazo[4,5-c]pyridin-5(4H)-yl)methanone]
18 | < 500 | O=C(c1ccnn1C(F)F)N1CCc2[nH]cnc2[C@H]1c1cc2ccccn2n1 [Example 656, (S)-(1-(difluoromethyl)-1H-pyrazol-5-yl)(4-(pyrazolo[1,5-a]pyridin-2-yl)-6,7-dihydro-1H-imidazo[4,5-c]pyridin-5(4H)-yl)methanone]
19 | < 500 | O=C(c1nnc(-c2ccccn2)o1)N1CCc2[nH]cnc2[C@H]1c1cc2cccc(C(F)F)n2n1 [Example 1421, (S)-(4-(7-(difluoromethyl)pyrazolo[1,5-a]pyridin-2-yl)-6,7-dihydro-1H-imidazo[4,5-c]pyridin-5(4H)-yl)(5-(pyridin-2-yl)-1,3,4-oxadiazol-2-yl)methanone]
20 | 1000 to 5000 | O=C(c1nnc(C2CCC2)o1)N1CCc2[nH]cnc2[C@@H]1c1cc2cccc(C(F)F)n2n1 [Example 1572, (R)-(5-cyclobutyl-1,3,4-oxadiazol-2-yl)(4-(7-(difluoromethyl)pyrazolo[1,5-a]pyridin-2-yl)-6,7-dihydro-1H-imidazo[4,5-c]pyridin-5(4H)-yl)methanone]
21 | 1000 to 5000 | CCOc1cccc2cc([C@H]3c4nc[nH]c4CCN3C(=O)c3nnc(C(C)(C)F)o3)nn12 [Example 1243, (R)-(4-(7-ethoxypyrazolo[1,5-a]pyridin-2-yl)-6,7-dihydro-1H-imidazo[4,5-c]pyridin-5(4H)-yl)(5-(2-fluoropropan-2-yl)-1,3,4-oxadiazol-2-yl)methanone]
22 | 1000 to 5000 | O=C(c1cnn2cc(C3CC3)ccc12)N1CCc2[nH]cnc2[C@H]1c1cc2cccc(Cl)n2n1 [Example 1744, (S)-(4-(7-chloropyrazolo[1,5-a]pyridin-2-yl)-6,7-dihydro-1H-imidazo[4,5-c]pyridin-5(4H)-yl)(6-cyclopropylpyrazolo[1,5-a]pyridin-3-yl)methanone]
23 | < 500 | Cc1cccn2nc([C@@H]3c4nc[nH]c4CCN3C(=O)c3nnc(C4(C)CC4)o3)cc12 [Example 1323, (S)-(5-(1-methylcyclopropyl)-1,3,4-oxadiazol-2-yl)(4-(4-methylpyrazolo[1,5-a]pyridin-2-yl)-6,7-dihydro-1H-imidazo[4,5-c]pyridin-5(4H)-yl)methanone]
24 | 1000 to 5000 | O=C(c1nnc(C2CCC2)o1)N1CCc2[nH]cnc2[C@@H]1c1cc2cccc(F)n2n1 [Example 1574, (R)-(5-cyclobutyl-1,3,4-oxadiazol-2-yl)(4-(7-fluoropyrazolo[1,5-a]pyridin-2-yl)-6,7-dihydro-1H-imidazo[4,5-c]pyridin-5(4H)-yl)methanone]
25 | 500 to 1000 | O=C(c1nnc(-c2ccn(C(F)(F)F)n2)o1)N1CCc2[nH]cnc2[C@H]1c1cc2cccc(C(F)(F)F)n2n1 [Example 1542, (S)-(5-(1-(trifluoromethyl)-1H-pyrazol-3-yl)-1,3,4-oxadiazol-2-yl)(4-(7-(trifluoromethyl)pyrazolo[1,5-a]pyridin-2-yl)-6,7-dihydro-1H-imidazo[4,5-c]pyridin-5(4H)-yl)methanone]
26 | 1000 to 5000 | CC(C)(O)c1nc(C(F)(F)F)c(C(=O)N2CCc3[nH]cnc3[C@@H]2c2cc3cccc(Cl)n3n2)o1 [Example 1193, (R)-(4-(7-chloropyrazolo[1,5-a]pyridin-2-yl)-6,7-dihydro-1H-imidazo[4,5-c]pyridin-5(4H)-yl)(2-(2-hydroxypropan-2-yl)-4-(trifluoromethyl)oxazol-5-yl)methanone]
27 | > 5000 | O=C(c1cnn2ccccc12)N1CCc2[nH]cnc2[C@@H]1c1cc2ccccn2n1 [Example 601, (R)-(4-(pyrazolo[1,5-a]pyridin-2-yl)-6,7-dihydro-1H-imidazo[4,5-c]pyridin-5(4H)-yl)(pyrazolo[1,5-a]pyridin-3-yl)methanone]
28 | < 500 | O=C(c1nnc(-c2ccccn2)o1)N1CCc2[nH]cnc2[C@H]1c1cc2cccc(F)n2n1 [Example 975, (S)-(4-(7-fluoropyrazolo[1,5-a]pyridin-2-yl)-6,7-dihydro-1H-imidazo[4,5-c]pyridin-5(4H)-yl)(5-(pyridin-2-yl)-1,3,4-oxadiazol-2-yl)methanone]
29 | < 500 | Cc1cccn2nc([C@@H]3c4nc[nH]c4CCN3C(=O)c3nnc(C4CCC4)o3)cc12 [Example 1556, (S)-(5-cyclobutyl-1,3,4-oxadiazol-2-yl)(4-(4-methylpyrazolo[1,5-a]pyridin-2-yl)-6,7-dihydro-1H-imidazo[4,5-c]pyridin-5(4H)-yl)methanone]
30 | < 500 | O=C(c1nnc(-c2ccn(C(F)F)n2)o1)N1CCc2[nH]cnc2[C@H]1c1cc2c(F)cccn2n1 [Example 825, (S)-(5-(1-(difluoromethyl)-1H-pyrazol-3-yl)-1,3,4-oxadiazol-2-yl)(4-(4-fluoropyrazolo[1,5-a]pyridin-2-yl)-6,7-dihydro-1H-imidazo[4,5-c]pyridin-5(4H)-yl)methanone]
31 | < 500 | O=C(c1ocnc1C(F)F)N1CCc2[nH]cnc2[C@H]1c1cc2ccc(F)cn2n1 [Example 1068, (S)-(4-(difluoromethyl)oxazol-5-yl)(4-(6-fluoropyrazolo[1,5-a]pyridin-2-yl)-6,7-dihydro-1H-imidazo[4,5-c]pyridin-5(4H)-yl)methanone]

Source: patent US20230365592A1 (Agios Pharmaceuticals, Inc., priority 2022, published 2023)
